Measurements as given in the supplement of paper PMC10307832.

Columns and labels:
Assay in all cases: relative viability (nuclei count vs DMSO), 5 days (fraction); higher = more cells survive
[1] = compound: C1=CC(=CC=C1C2=CC(=C(S2)NC(=O)N)C(=O)N)F [TPCA-1] + Cc1cc(Nc2cc(N3CCN(C)CC3)nc(Sc3ccc(NC(=O)C4CC4)cc3)n2)n[nH]1 [Tozasertib] (partner 0.1 µM)
Summary of the method: (§1)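 Relative viability is defined as nuclei in treated wells over nuclei in vehicle wells. Duplicate plates were run and medians reported. Lung cancer cell lines in 1536-well plates were dosed by pin tool one day after seeding, with one drug or with a fixed anchor-drug dose plus five library-drug doses (not always all listed) in √10 steps, and nuclei were counted after 5 days.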

[2] = compound: C[C@]12O[C@H](C[C@]1(O)CO)n1c3ccccc3c3c4c(c5c6ccccc6n2c5c31)CNC4=O [Lestaurtinib] + CC(=O)c1c(C)c2cnc(Nc3ccc(N4CCNCC4)cn3)nc2n(C2CCCC2)c1=O [Palbociclib] (partner 0.5 µM)
Summary of the method: as §1

[3] = compound: C[C@]12O[C@H](C[C@]1(O)CO)n1c3ccccc3c3c4c(c5c6ccccc6n2c5c31)CNC4=O [Lestaurtinib] + Cc1nc(NC(=O)N2CCC[C@H]2C(N)=O)sc1-c1ccnc(C(C)(C)C(F)(F)F)c1 [Alpelisib] (partner 2 µM)
Summary of the method: as §1

[4] = compound: C[C@]12O[C@H](C[C@]1(O)CO)n1c3ccccc3c3c4c(c5c6ccccc6n2c5c31)CNC4=O [Lestaurtinib] + Nc1ncn([C@H]2C[C@H](O)[C@@H](CO)O2)c(=O)n1 [Decitabine] (partner 2 µM)
Summary of the method: as §1

| Cell Line | relative viability ([1]; first compound 0.04 µM) | relative viability ([1]; first compound 0.1265 µM) | relative viability ([1]; first compound 0.4 µM) | relative viability ([1]; first compound 1.265 µM) | relative viability ([1]; first compound 4 µM) | relative viability ([2]; first compound 0.005 µM) | relative viability ([2]; first compound 0.01581 µM) | relative viability ([2]; first compound 0.05 µM) | relative viability ([2]; first compound 0.1581 µM) | relative viability ([2]; first compound 0.5 µM) | relative viability ([3]; first compound 0.005 µM) | relative viability ([3]; first compound 0.01581 µM) | relative viability ([3]; first compound 0.05 µM) | relative viability ([3]; first compound 0.1581 µM) | relative viability ([3]; first compound 0.5 µM) | relative viability ([4]; first compound 0.005 µM) | relative viability ([4]; first compound 0.01581 µM) | relative viability ([4]; first compound 0.05 µM) | relative viability ([4]; first compound 0.1581 µM) | relative viability ([4]; first compound 0.5 µM) |
| --- | --- | --- | --- | --- | --- | --- | --- | --- | --- | --- | --- | --- | --- | --- | --- | --- | --- | --- | --- | --- |
| NCI-H647 | 0.262 | 0.198 | 0.348 | 0.129 | 0.164 | 0.382 | 0.201 | 0.227 | 0.247 | 0.164 | 0.972 | 0.87 | 0.267 | 0.231 | 0.14 | 0.415 | 0.404 | 0.337 | 0.311 | 0.173 |
| NCI-H1755 | 0.57 | 0.526 | 0.52 | 0.511 | 0.374 | 0.446 | 0.427 | 0.464 | 0.376 | 0.382 | 1 | 0.927 | 0.571 | 0.349 | 0.202 | 0.723 | 0.791 | 0.806 | 0.638 | 0.559 |
| EPLC-272H | 0.652 | 0.277 | 0.31 | 0.442 | 0.251 | 0.359 | 0.317 | 0.269 | 0.3 | 0.353 | 0.896 | 0.917 | 0.575 | 0.522 | 0.556 | 0.334 | 0.354 | 0.327 | 0.278 | 0.3 |
| NCI-H1437 | 0.434 | 0.39 | 0.42 | 0.385 | 0.372 | 0.35 | 0.371 | 0.369 | 0.364 | 0.415 | 0.958 | 1.11 | 1.01 | 0.757 | 0.461 | 0.546 | 0.649 | 0.645 | 0.626 | 0.636 |
| EKVX | 0.387 | 0.332 | 0.428 | 0.354 | 0.284 | 0.346 |  | 0.355 | 0.421 | 0.426 | 0.892 | 1.03 | 0.938 | 0.743 | 0.519 | 0.518 |  | 0.357 | 0.396 | 0.342 |
| NCI-H1651 | 0.678 | 0.646 | 0.794 | 0.652 | 0.521 | 0.536 | 0.594 | 0.551 | 0.569 | 0.497 | 1.1 | 0.889 | 0.913 | 0.845 | 0.529 | 0.63 | 0.775 | 0.59 | 0.653 | 0.406 |
| HCC-15 | 0.413 | 0.438 | 0.338 | 0.276 | 0.15 | 0.751 | 0.779 | 0.68 | 0.687 | 0.187 | 1.02 | 1.06 | 0.819 | 0.583 | 0.161 | 0.747 | 0.843 | 0.683 | 0.385 | 0.191 |
| LCLC-103H | 0.488 | 0.405 | 0.515 | 0.513 | 0.321 | 0.524 | 0.506 | 0.497 | 0.474 | 0.51 | 1.06 | 0.991 | 0.678 | 0.683 | 0.651 | 0.783 | 0.79 | 0.687 | 0.534 | 0.703 |
| NCI-H23 | 0.303 | 0.348 | 0.332 | 0.308 | 0.248 | 0.578 | 0.624 | 0.527 | 0.5 | 0.274 | 0.666 | 0.552 | 0.571 | 0.565 | 0.236 | 0.349 | 0.315 | 0.339 | 0.295 | 0.228 |
| NCI-H460 | 0.473 | 0.69 | 0.419 | 0.448 | 0.0397 | 0.151 | 0.231 | 0.112 | 0.116 | 0.116 | 0.477 | 0.406 | 0.222 | 0.198 | 0.0751 | 0.639 | 0.519 | 0.499 | 0.548 | 0.305 |
| HCC-366 | 0.107 | 0.135 | 0.0742 | 0.0631 | 0.0314 | 0.371 | 0.424 | 0.471 | 0.391 | 0.172 | 0.477 | 0.438 | 0.388 | 0.287 | 0.209 | 0.408 | 0.343 | 0.378 | 0.365 | 0.222 |
| NCI-H2085 | 0.863 | 0.72 | 0.746 | 0.735 | 0.479 | 0.445 | 0.489 | 0.471 | 0.463 | 0.475 | 1.05 | 1.11 | 1.06 | 1.01 | 0.843 | 0.55 | 0.583 | 0.664 | 0.597 | 0.551 |
| PC-14 | 0.587 | 0.55 | 0.58 | 0.585 | 0.28 | 0.509 | 0.594 | 0.356 | 0.415 | 0.115 | 0.973 | 1.01 | 0.465 | 0.602 | 0.471 | 0.244 | 0.223 | 0.237 | 0.207 | 0.0672 |
| HOP-62 | 0.368 | 0.367 | 0.392 | 0.292 | 0.27 | 0.491 | 0.539 | 0.496 | 0.468 | 0.335 | 1.05 | 0.919 | 1.17 | 0.775 | 0.436 | 0.171 | 0.231 | 0.273 | 0.323 | 0.211 |
| NCI-H2087 | 0.243 | 0.239 | 0.28 | 0.2 | 0.116 | 0.167 | 0.252 | 0.167 | 0.17 | 0.207 | 1.15 | 1.08 | 0.83 | 0.783 | 0.325 | 0.289 | 0.338 | 0.258 | 0.207 | 0.206 |
| NCI-H1793 | 0.33 |  | 0.307 | 0.235 | 0.165 | 0.333 | 0.36 | 0.324 | 0.335 | 0.26 | 0.874 | 0.761 | 0.588 | 0.546 | 0.494 | 0.506 | 0.481 | 0.459 | 0.542 | 0.421 |
